Reference: ChEMBL document CHEMBL5154747, “Discovery of new carbonic anhydrase IX inhibitors as anticancer agents by toning the hydrophobic and hydrophilic rims of the active site to encounter the dual-tail approach” (Eur J Med Chem, 2022)

Experiments:
MOLT-4 = assay: Anticancer activity against human MOLT-4 cells assessed as cell growth inhibition at 10 uM incubated for 48 hrs by SRB assay relative to control; format: functional; settings: read-out: GI
A549 = assay: Anticancer activity against human A549 cells assessed as cell growth inhibition at 10 uM incubated for 48 hrs by SRB assay relative to control; format: functional; settings: read-out: GI
NCI/ADR-RES = assay: Anticancer activity against human NCI/ADR-RES cells assessed as cell growth inhibition at 10 uM incubated for 48 hrs by SRB assay relative to control; format: functional; settings: read-out: GI
SK-MEL-2 = assay: Anticancer activity against human SK-MEL-2 cells assessed as cell growth inhibition at 10 uM incubated for 48 hrs by SRB assay relative to control; format: functional; settings: read-out: GI
U-251 = assay: Anticancer activity against human U-251 cells assessed as cell growth inhibition at 10 uM incubated for 48 hrs by SRB assay relative to control; format: functional; settings: read-out: GI
SK-MEL-5 = assay: Anticancer activity against human SK-MEL-5 cells assessed as cell growth inhibition at 10 uM incubated for 48 hrs by SRB assay relative to control; format: functional; settings: read-out: GI
T47D = assay: Anticancer activity against human T47D cells assessed as cell growth inhibition at 10 uM incubated for 48 hrs by SRB assay relative to control; format: functional; settings: read-out: GI
CAKI-1 = assay: Anticancer activity against human CAKI-1 cells assessed as cell growth inhibition at 10 uM incubated for 48 hrs by SRB assay relative to control; format: functional; settings: read-out: GI
PC-3 = assay: Anticancer activity against human PC-3 cells assessed as cell growth inhibition at 10 uM incubated for 48 hrs by SRB assay relative to control; format: functional; settings: read-out: GI
NCI-H226 = assay: Anticancer activity against human NCI-H226 cells assessed as cell growth inhibition at 10 uM incubated for 48 hrs by SRB assay relative to control; format: functional; settings: read-out: GI
K562 = assay: Anticancer activity against human K562 cells assessed as cell growth inhibition at 10 uM incubated for 48 hrs by SRB assay relative to control; format: functional; settings: read-out: GI
MDA-MB-231 = assay: Anticancer activity against human MDA-MB-231 cells assessed as cell growth inhibition at 10 uM incubated for 48 hrs by SRB assay relative to control; format: functional; settings: read-out: GI
SW-620 = assay: Anticancer activity against human SW-620 cells assessed as cell growth inhibition at 10 uM incubated for 48 hrs by SRB assay relative to control; format: functional; settings: read-out: GI
UACC-257 = assay: Anticancer activity against human UACC-257 cells assessed as cell growth inhibition at 10 uM incubated for 48 hrs by SRB assay relative to control; format: functional; settings: read-out: GI
MDA-MB-435 = assay: Anticancer activity against human MDA-MB-435 cells assessed as cell growth inhibition at 10 uM incubated for 48 hrs by SRB assay relative to control; format: functional; settings: read-out: GI
SR = assay: Anticancer activity against human SR cells assessed as cell growth inhibition at 10 uM incubated for 48 hrs by SRB assay relative to control; format: functional; settings: read-out: GI
HCC 2998 = assay: Anticancer activity against human HCC 2998 cells assessed as cell growth inhibition at 10 uM incubated for 48 hrs by SRB assay relative to control; format: functional; settings: read-out: GI
OVCAR-4 = assay: Anticancer activity against human OVCAR-4 cells assessed as cell growth inhibition at 10 uM incubated for 48 hrs by SRB assay relative to control; format: functional; settings: read-out: GI
HCT-116 = assay: Anticancer activity against human HCT-116 cells assessed as cell growth inhibition at 10 uM incubated for 48 hrs by SRB assay relative to control; format: functional; settings: read-out: GI
HOP-62 = assay: Anticancer activity against human HOP-62 cells assessed as cell growth inhibition at 10 uM incubated for 48 hrs by SRB assay relative to control; format: functional; settings: read-out: GI
HL-60(TB) = assay: Anticancer activity against human HL-60(TB) cells assessed as cell growth inhibition at 10 uM incubated for 48 hrs by SRB assay relative to control; format: functional; settings: read-out: GI
HCT-15 = assay: Anticancer activity against human HCT-15 cells assessed as cell growth inhibition at 10 uM incubated for 48 hrs by SRB assay relative to control; format: functional; settings: read-out: GI
SNB-75 = assay: Anticancer activity against human SNB-75 cells assessed as cell growth inhibition at 10 uM incubated for 48 hrs by SRB assay relative to control; format: functional; settings: read-out: GI
A498 = assay: Anticancer activity against human A498 cells assessed as cell growth inhibition at 10 uM incubated for 48 hrs by SRB assay relative to control; format: functional; settings: read-out: GI
SF-268 = assay: Anticancer activity against human SF-268 cells assessed as cell growth inhibition at 10 uM incubated for 48 hrs by SRB assay relative to control; format: functional; settings: read-out: GI
OVCAR-5 = assay: Anticancer activity against human OVCAR-5 cells assessed as cell growth inhibition at 10 uM incubated for 48 hrs by SRB assay relative to control; format: functional; settings: read-out: GI
OVCAR-3 = assay: Anticancer activity against human OVCAR-3 cells assessed as cell growth inhibition at 10 uM incubated for 48 hrs by SRB assay relative to control; format: functional; settings: read-out: GI
RPMI-8226 = assay: Anticancer activity against human RPMI-8226 cells assessed as cell growth inhibition at 10 uM incubated for 48 hrs by SRB assay relative to control; format: functional; settings: read-out: GI
NCI-H460 = assay: Anticancer activity against human NCI-H460 cells assessed as cell growth inhibition at 10 uM incubated for 48 hrs by SRB assay relative to control; format: functional; settings: read-out: GI
MCF7 = assay: Anticancer activity against human MCF7 cells assessed as cell growth inhibition at 10 uM incubated for 48 hrs by SRB assay relative to control; format: functional; settings: read-out: GI
SF-539 = assay: Anticancer activity against human SF-539 cells assessed as cell growth inhibition at 10 uM incubated for 48 hrs by SRB assay relative to control; format: functional; settings: read-out: GI
MDA-MB-468 = assay: Anticancer activity against human MDA-MB-468 cells assessed as cell growth inhibition at 10 uM incubated for 48 hrs by SRB assay relative to control; format: functional; settings: read-out: GI
KM12 = assay: Anticancer activity against human KM12 cells assessed as cell growth inhibition at 10 uM incubated for 48 hrs by SRB assay relative to control; format: functional; settings: read-out: GI
CCRF-CEM = assay: Anticancer activity against human CCRF-CEM cells assessed as cell growth inhibition at 10 uM incubated for 48 hrs by SRB assay relative to control; format: functional; settings: read-out: GI
NCI-H23 = assay: Anticancer activity against human NCI-H23 cells assessed as cell growth inhibition at 10 uM incubated for 48 hrs by SRB assay relative to control; format: functional; settings: read-out: GI
BT-549 = assay: Anticancer activity against human BT-549 cells assessed as cell growth inhibition at 10 uM incubated for 48 hrs by SRB assay relative to control; format: functional; settings: read-out: GI
UACC-62 = assay: Anticancer activity against human UACC-62 cells assessed as cell growth inhibition at 10 uM incubated for 48 hrs by SRB assay relative to control; format: functional; settings: read-out: GI
HOP-92 = assay: Anticancer activity against human HOP-92 cells assessed as cell growth inhibition at 10 uM incubated for 48 hrs by SRB assay relative to control; format: functional; settings: read-out: GI
ACHN = assay: Anticancer activity against human ACHN cells assessed as cell growth inhibition at 10 uM incubated for 48 hrs by SRB assay relative to control; format: functional; settings: read-out: GI
Carbonic anhydrase 9 = Carbonic anhydrase 9 (Homo sapiens, UniProt Q16790); assay: Inhibition of recombinant human CA 9 preincubated for 15 mins by phenol red dye based stopped flow CO2 hydration assay

SMILES	inhibition of growth at 10 µM (MOLT-4)	inhibition of growth at 10 µM (A549)	inhibition of growth at 10 µM (NCI/ADR-RES)	inhibition of growth at 10 µM (SK-MEL-2)	inhibition of growth at 10 µM (U-251)	inhibition of growth at 10 µM (SK-MEL-5)	inhibition of growth at 10 µM (T47D)	inhibition of growth at 10 µM (CAKI-1)	inhibition of growth at 10 µM (PC-3)	inhibition of growth at 10 µM (NCI-H226)	inhibition of growth at 10 µM (K562)	inhibition of growth at 10 µM (MDA-MB-231)	inhibition of growth at 10 µM (SW-620)	inhibition of growth at 10 µM (UACC-257)	inhibition of growth at 10 µM (MDA-MB-435)	inhibition of growth at 10 µM (SR)	inhibition of growth at 10 µM (HCC 2998)	inhibition of growth at 10 µM (OVCAR-4)	inhibition of growth at 10 µM (HCT-116)	inhibition of growth at 10 µM (HOP-62)	also measured
NNc1nc(Nc2ccccc2)nc(Nc2ccc(S(N)(=O)=O)cc2)n1	81%	< 10%	< 10%	< 10%	< 10%	< 10%	< 10%	< 10%	< 10%	< 10%	< 10%	< 10%	< 10%	< 10%	< 10%	32%	< 10%	< 10%	< 10%	< 10%	inhibition of growth at 10 µM (HL-60(TB)): < 10%; inhibition of growth at 10 µM (HCT-15): < 10%; inhibition of growth at 10 µM (SNB-75): < 10%; inhibition of growth at 10 µM (A498): < 10%; inhibition of growth at 10 µM (SF-268): < 10%; inhibition of growth at 10 µM (OVCAR-5): < 10%; inhibition of growth at 10 µM (OVCAR-3): < 10%; inhibition of growth at 10 µM (RPMI-8226): < 10%; inhibition of growth at 10 µM (NCI-H460): < 10%; inhibition of growth at 10 µM (MCF7): < 10%; inhibition of growth at 10 µM (SF-539): < 10%; inhibition of growth at 10 µM (MDA-MB-468): < 10%; inhibition of growth at 10 µM (KM12): < 10%; inhibition of growth at 10 µM (CCRF-CEM): < 10%; inhibition of growth at 10 µM (NCI-H23): < 10%; inhibition of growth at 10 µM (BT-549): < 10%; inhibition of growth at 10 µM (UACC-62): < 10%; inhibition of growth at 10 µM (HOP-92): < 10%; inhibition of growth at 10 µM (ACHN): < 10%
NS(=O)(=O)c1ccc(Nc2nc(N/N=C/c3cccs3)nc(Nc3ccccc3)n2)cc1	42%	11%	< 10%	24%	< 10%	26%	38%	44%	23%	29%	39%	53%	10%	< 10%	25%	52%	11%	29%	74%	15%	inhibition of growth at 10 µM (HL-60(TB)): 29%; inhibition of growth at 10 µM (HCT-15): 14%; inhibition of growth at 10 µM (SNB-75): 16%; inhibition of growth at 10 µM (A498): 43%; inhibition of growth at 10 µM (SF-268): 16%; inhibition of growth at 10 µM (OVCAR-5): 19%; Ki (Carbonic anhydrase 9): 255 nM; inhibition of growth at 10 µM (OVCAR-3): 35%; inhibition of growth at 10 µM (RPMI-8226): 47%; inhibition of growth at 10 µM (NCI-H460): 31%; inhibition of growth at 10 µM (MCF7): 47%; inhibition of growth at 10 µM (SF-539): 34%; inhibition of growth at 10 µM (MDA-MB-468): 50%; inhibition of growth at 10 µM (KM12): 44%; inhibition of growth at 10 µM (CCRF-CEM): 68%; inhibition of growth at 10 µM (NCI-H23): 19%; inhibition of growth at 10 µM (BT-549): 22%; inhibition of growth at 10 µM (UACC-62): 24%; inhibition of growth at 10 µM (HOP-92): 44%; inhibition of growth at 10 µM (ACHN): 21%
NS(=O)(=O)c1ccc(Nc2nc(N/N=C/c3ccc(F)cc3)nc(Nc3ccccc3)n2)cc1	78%	92%	< 10%	109%	88%	61%	79%	43%	60%	49%	45%	38%	24%	52%	46%	42%	44%	44%	55%	82%	inhibition of growth at 10 µM (HL-60(TB)): 39%; inhibition of growth at 10 µM (HCT-15): 20%; inhibition of growth at 10 µM (SNB-75): < 10%; inhibition of growth at 10 µM (SF-268): 58%; inhibition of growth at 10 µM (OVCAR-5): 24%; Ki (Carbonic anhydrase 9): 61.3 nM; inhibition of growth at 10 µM (OVCAR-3): 69%; inhibition of growth at 10 µM (RPMI-8226): 49%; inhibition of growth at 10 µM (NCI-H460): 34%; inhibition of growth at 10 µM (MCF7): 71%; inhibition of growth at 10 µM (SF-539): 37%; inhibition of growth at 10 µM (MDA-MB-468): 45%; inhibition of growth at 10 µM (KM12): 69%; inhibition of growth at 10 µM (CCRF-CEM): 80%; inhibition of growth at 10 µM (NCI-H23): 45%; inhibition of growth at 10 µM (BT-549): 32%; inhibition of growth at 10 µM (UACC-62): 39%; inhibition of growth at 10 µM (HOP-92): 36%; inhibition of growth at 10 µM (ACHN): 19%
